Measured values published in PMC6980506, “Comparative pharmacokinetics and pharmacodynamics of the advanced Retinol-Binding Protein 4 antagonist in dog and cynomolgus monkey” (PLoS ONE, 2020).

Columns and labels:
hERG channel = test system: hERG channel; design: method as in PMID 26181715; details: cited from earlier work
PXR = test system: PXR; design: method as in PMID 26181715; details: cited from earlier work
[1] = test system: standard screening panel of fifty-five GPCRs, enzymes, ion channels, and transporters; design: method as in PMID 26181715; details: cited from earlier work
[2] = Metabolic clearance in cynomolgus monkey hepatocytes; format: in vitro ADME; details: male, cryopreserved hepatocytes, Cyno hepatocytes, read-out: Hepatocyte CLint (intrinsic clearance)
Description: All measurements were done in duplicate. Testosterone and 7-hydroxycoumarin were used as positive controls. Pooled cryopreserved human hepatocytes, cryopreserved male beagle dog hepatocytes, and cryopreserved male cynomolgus monkey hepatocytes were obtained from BioIVT (Baltimore, MD). Compound at 1 μM was incubated with 1 x 10^6 cells. Final DMSO concentration in the reaction mix was 0.1%. Aliquots (100 μL) of reaction mixtures were removed from the incubation plate at different timepoints and mixed with 150 μL of ice-cold acetonitrile. After incubation on ice for 15 min, the samples were centrifuged (3,600 rpm, 10 min, 4°C) to precipitate protein. The supernatants were diluted 1:1 (v/v) with water containing internal standards and subjected to the LC/MS analysis. Hepatic clearance was calculated using the well-stirred liver model

Cc1cc(C(=O)O)nc(N2C[C@H]3C[C@@H](c4ccccc4C(F)(F)F)C[C@H]3C2)n1 [BPN-14136]
off-target activity at the hERG channel (hERG channel): no significant off-target activity | PXR activation (PXR): no PXR activation | off-target activity within standard screening panel [1]: no significant off-target activity | hepatocyte CLint at 1 μM [2]: 0.7 µL/min/1e6 cells
